Here are results for 3 compounds from patent publication EP0036652A2, “Cephalosporin derivatives, process for their preparation, corresponding compositions, their use in the treatment of diseases and intermediates” (F. HOFFMANN-LA ROCHE & CO. Aktiengesellschaft, priority 1980, dated 1981).

In brackets after ≈: the same amount, converted by molar mass.

The subject of one data set is Haemophilus influenzae. Nature of the data set: In vitro activity: minimum inhibitory concentration. The data set is classed as cell-based. The conditions noted are these: read-out: Mindesthemmkonzentration. The source says:
(§1) Zum Nachweis der antimikrobiellen Wirksamkeit der erwähnten Produkte wurden folgende repräsentative Vertreter getestet: • Produkt A: (6R,7R)-7-/2-(2-Amino-4-thiazolyl)-2-[(Z)-methoxyimino]acetamido/-3-/[(2,5-dihydro-6- methoxy-2-methyl-5-oxo-as-triazin-3-yl)-; thio]methyl/-8-oxo-5-thia-1-azabicyclo-[4.2.0]oct-2-en-2-carbonsäure-Natriumsalz • Produkt B: (6R,7R)-7-/2-(2-Amino-4-thiazolyl)-2-[(Z)-methoxyimino]acetamido/-3-/[(3-carboxy-1-methyl-1H-1,2,4-triazol-5-yl)thio]methyl/-8-oxo-5-thia-1-azabicyclo[4.2.0]oct-2-en-2-carbonsäure-Dinatriumsalz • Produkt C: (6R,7R)-7-[2-(2-Amino-4-thiazolyl)-2-((Z)-methoxyimino)acetamido]-3-[[[2,5-dihydro-2-methyl-5-oxo-6-[(pivaloyloxy)methoxy]-as- triazin-3-yl]thio]methyl]-[…]-1-azabicyclo[4.2.0]oct-2-en-2-carbonsäure-Natrium-. salz.
(§2) Aktivität in vitro: Mindesthemmkonzentration (µg/ml)

The next data set deals with Neisseria gonorrhoeae. The data set is described as above. It counts as cell-based. The conditions noted are these: read-out: Mindesthemmkonzentration.
Source text: as §1, §2

In a further data set the test system is Escherichia coli. Described as above. The data set is classed as cell-based. The conditions noted are these: β-lactamase-producing strain, read-out: Mindesthemmkonzentration.
Source text: as §1, §2

For another data set, the system named is Proteus vulgaris. Described as above. The data set is classed as cell-based. The conditions noted are these: β-lactamase-producing strain, read-out: Mindesthemmkonzentration.
Source text: as §1, §2

The next data set concerns Proteus mirabilis. The data set is described as above. The settings on record: β-lactamase-producing strain, read-out: Mindesthemmkonzentration. It counts as cell-based.
Source text: as §1, §2

The subject of the next data set is Staphylococcus aureus. Described as above. The settings on record: read-out: Mindesthemmkonzentration. The data set is classed as cell-based.
Source text: as §1, §2

For a further data set, the system named is Serratia marcescens. The data set is described as above. It counts as cell-based. The settings on record: β-lactamase-producing strain, read-out: Mindesthemmkonzentration.
Source text: as §1, §2

A further data set relates to Enterobacter cloacae. The description is as above. The data set is classed as cell-based. The settings on record: β-lactamase-producing strain, read-out: Mindesthemmkonzentration.
Source text: as §1, §2

The subject of data set [1] is Pseudomonas aeruginosa Stamm 2. The data set is described as above. It counts as cell-based. The conditions noted are these: STAMM2; Pseudomonas aeruginosa Stamm 2, β-lactamase-producing strain; read-out: Mindesthemmkonzentration.
Source text: as §1, §2

Data set [2] concerns Pseudomonas aeruginosa Stamm 1. The data set is described as above. It counts as cell-based. The conditions noted are these: STAMM1; Pseudomonas aeruginosa Stamm 1, β-lactamase-producing strain; read-out: Mindesthemmkonzentration.
Source text: as §1, §2

The next data set is described as follows: Toxicity (LD100). The data set is classed as in vivo.
A short description of a further data set: Half-life in the rat. Details: species or system Ratte. The conditions noted are these: in vivo, 20 mg/kg, after administration of 20 mg substance per kg body weight, read-out: Halbwertzeit. The text has this: Verbindungen der Formel I, worin X die Gruppe (b) darstellt, sowie die entsprechenden Ester, Salze und Hydrate zeichnen sich durch eine lange Halbwertzeit aus, d.h. sie bleiben lange im Organismus und können dementsprechend effektiver ihre keimtötende Funktion ausüben. So zeigt z.B. das Dinatriumsalz von (6R,7R)-7-/-2-(2-Amino-4-thiazolyl)-2-[(Z)-me- thoxyimino]acetamido/-3-/[(3-carboxy-1-methyl-1H-1,2,4-triazol-5-yl)thio]methyl/-8-oxo-5-thia-1-azabieyclo[4.2.0]-oct-2-en-2-carbonsäure eine Halbwertzeit an der Ratte von 22 Min. nach Verabreichung von 20 mg Substanz pro kg Körpergewicht.

`CO/N=C(\C(=O)N[C@@H]1C(=O)N2C(C(=O)O)=C(CSc3nc(=O)c(OC)nn3C)CS[C@H]12)c1csc(N)n1` [Produkt A, (6R,7R)-7-/2-(2-Amino-4-thiazolyl)-2-[(Z)-methoxyimino]acetamido/-3-/[(2,5-dihydro-6-methoxy-2-methyl-5-oxo-as-triazin-3-yl)- ; thio]methyl/-8-oxo-5-thia-1-azabicyclo-[4.2.0]oct-2-en-2-carbonsäure-Natriumsalz]: the MIC was 0.01 µg/mL (≈ 0.0176 µM) in the data set on Haemophilus influenzae; 0.01 µg/mL (≈ 0.0176 µM) with Neisseria gonorrhoeae; 0.04 µg/mL (≈ 0.0703 µM) in the data set on Escherichia coli; 0.02 µg/mL (≈ 0.0352 µM) in the data set with Proteus vulgaris; 0.04 µg/mL (≈ 0.0703 µM) in the data set on Proteus mirabilis; 2.5 µg/mL (≈ 4.4 µM) in the data set with Staphylococcus aureus. Also, the MIC in the data set with Serratia marcescens came to 0.16 µg/mL (≈ 0.281 µM); with Enterobacter cloacae, 1.2 µg/mL (≈ 2.11 µM); in [1] it was 80 µg/mL (≈ 141 µM); in data set [2] it was 40 µg/mL (≈ 70.3 µM). In addition, the LD100 in “Toxicity (LD100)” (i.v.) is above 500 mg/kg; in the data set “Toxicity (LD100)” (p.o.), above 5000 mg/kg; in “Toxicity (LD100)” (s.c.) it was above 4000 mg/kg.
Consider `CO/N=C(\C(=O)N[C@@H]1C(=O)N2C(C(=O)O)=C(CSc3nc(=O)c(OCOC(=O)C(C)(C)C)nn3C)CS[C@H]12)c1csc(N)n1` [Produkt C, (6R,7R)-7-[2-(2-Amino-4-thiazolyl)-2-((Z)-methoxyimino)acetamido]-3-[[[2,5-dihydro-2-methyl-5-oxo-6-[(pivaloyloxy)methoxy]-as-triazin-3-yl]thio]methyl]-[…]-1-azabicyclo[4.2.0]oct-2-en-2-carbonsäure-Natrium-. salz], for which the MIC came out at 0.04 µg/mL (≈ 0.0598 µM) with Haemophilus influenzae; 0.1 µg/mL (≈ 0.15 µM) in the data set on Escherichia coli; 0.2 µg/mL (≈ 0.299 µM) in the data set on Proteus vulgaris; 0.4 µg/mL (≈ 0.598 µM) in the data set on Proteus mirabilis; 1.6 µg/mL (≈ 2.39 µM) in the data set with Staphylococcus aureus; 3.1 µg/mL (≈ 4.64 µM) in the data set on Serratia marcescens. The figures for the MIC (in the data set on Enterobacter cloacae; in data set [1]; in data set [2]) were 25 µg/mL (≈ 37.4 µM), 50 µg/mL (≈ 74.8 µM) and 50 µg/mL (≈ 74.8 µM), respectively. Further, the LD100 in the data set “Toxicity (LD100)” (i.v.) was above 500 mg/kg; in “Toxicity (LD100)” (p.o.), above 5000 mg/kg; in the data set “Toxicity (LD100)” (s.c.) it was above 4000 mg/kg.
For `CO/N=C(\C(=O)N[C@@H]1C(=O)N2C(C(=O)O)=C(CSc3nc(C(=O)O)nn3C)CS[C@H]12)c1csc(N)n1` [Produkt B, (6R,7R)-7-/2-(2-Amino-4-thiazolyl)-2-[(Z)-methoxyimino]acetamido/-3-/[(3-carboxy-1-methyl-1H-1,2,4-triazol-5-yl)thio]methyl/-8-oxo-5-thia-1-azabicyclo[4.2.0]oct-2-en-2-carbonsäure-Dinatriumsalz], in “Half-life in the rat”, the half-life came out at 22 min. Also, the MIC in the data set with Haemophilus influenzae amounted to 0.01 µg/mL (≈ 0.018 µM); with Neisseria gonorrhoeae it was 0.0025 µg/mL (≈ 0.00451 µM); with Escherichia coli, 0.08 µg/mL (≈ 0.144 µM); in the data set with Proteus vulgaris, 0.01 µg/mL (≈ 0.018 µM); in the data set on Proteus mirabilis, 0.01 µg/mL (≈ 0.018 µM); in the data set on Staphylococcus aureus, 10 µg/mL (≈ 18 µM). Further, the MIC in the data set on Serratia marcescens is 0.16 µg/mL (≈ 0.289 µM); with Enterobacter cloacae, 10 µg/mL (≈ 18 µM); in data set [1], 40 µg/mL (≈ 72.1 µM); in data set [2] it was 40 µg/mL (≈ 72.1 µM). In addition, in “Toxicity (LD100)” (p.o.), the LD100 is above 5000 mg/kg.
